Assay results reported in ChEMBL document CHEMBL4028801, “A multifactorial approach to hepatobiliary transporter assessment enables improved therapeutic compound development” (Toxicol Sci, 2013).

Key:
[1] = biological target: ATP-binding cassette sub-family C member 3 (Homo sapiens, UniProt O15438); assay: Inhibition of human MRP3 overexpressed in Sf9 insect cell membrane vesicles assessed as uptake of [3H]-estradiol-17beta-D-glucuronide in presence of ATP and GSH measured after 10 mins by membrane vesicle transport assay; format: ADME, cell-based
[2] = AUC in human at 20 to 100 mg, po QD or 60 mg, po BID after 12 hrs; format: ADME, organism-based; settings: in vivo
[3] = Ratio of drug concentration at steady state in human at 20 to 100 mg, po QD or 60 mg, po BID after 12 hrs to IC50 for human BSEP overexpressed in Sf9 insect cells; format: ADME, organism-based; settings: in vivo
[4] = biological target: Bile salt export pump (Homo sapiens, UniProt O95342); assay: Inhibition of human BSEP overexpressed in Sf9 cell membrane vesicles assessed as uptake of [3H]-taurocholate in presence of ATP measured after 15 to 20 mins by membrane vesicle transport assay; format: ADME, cell-based
[5] = biological target: T1, ATP-binding cassette sub-family C member 4 (Homo sapiens, UniProt O15439); assay: Inhibition of human MRP4 overexpressed in Sf9 cell membrane vesicles assessed as uptake of [3H]-estradiol-17beta-D-glucuronide in presence of ATP and GSH measured after 20 mins by membrane vesicle transport assay; format: ADME, cell-based
T1 sequence (O15439 whole entry): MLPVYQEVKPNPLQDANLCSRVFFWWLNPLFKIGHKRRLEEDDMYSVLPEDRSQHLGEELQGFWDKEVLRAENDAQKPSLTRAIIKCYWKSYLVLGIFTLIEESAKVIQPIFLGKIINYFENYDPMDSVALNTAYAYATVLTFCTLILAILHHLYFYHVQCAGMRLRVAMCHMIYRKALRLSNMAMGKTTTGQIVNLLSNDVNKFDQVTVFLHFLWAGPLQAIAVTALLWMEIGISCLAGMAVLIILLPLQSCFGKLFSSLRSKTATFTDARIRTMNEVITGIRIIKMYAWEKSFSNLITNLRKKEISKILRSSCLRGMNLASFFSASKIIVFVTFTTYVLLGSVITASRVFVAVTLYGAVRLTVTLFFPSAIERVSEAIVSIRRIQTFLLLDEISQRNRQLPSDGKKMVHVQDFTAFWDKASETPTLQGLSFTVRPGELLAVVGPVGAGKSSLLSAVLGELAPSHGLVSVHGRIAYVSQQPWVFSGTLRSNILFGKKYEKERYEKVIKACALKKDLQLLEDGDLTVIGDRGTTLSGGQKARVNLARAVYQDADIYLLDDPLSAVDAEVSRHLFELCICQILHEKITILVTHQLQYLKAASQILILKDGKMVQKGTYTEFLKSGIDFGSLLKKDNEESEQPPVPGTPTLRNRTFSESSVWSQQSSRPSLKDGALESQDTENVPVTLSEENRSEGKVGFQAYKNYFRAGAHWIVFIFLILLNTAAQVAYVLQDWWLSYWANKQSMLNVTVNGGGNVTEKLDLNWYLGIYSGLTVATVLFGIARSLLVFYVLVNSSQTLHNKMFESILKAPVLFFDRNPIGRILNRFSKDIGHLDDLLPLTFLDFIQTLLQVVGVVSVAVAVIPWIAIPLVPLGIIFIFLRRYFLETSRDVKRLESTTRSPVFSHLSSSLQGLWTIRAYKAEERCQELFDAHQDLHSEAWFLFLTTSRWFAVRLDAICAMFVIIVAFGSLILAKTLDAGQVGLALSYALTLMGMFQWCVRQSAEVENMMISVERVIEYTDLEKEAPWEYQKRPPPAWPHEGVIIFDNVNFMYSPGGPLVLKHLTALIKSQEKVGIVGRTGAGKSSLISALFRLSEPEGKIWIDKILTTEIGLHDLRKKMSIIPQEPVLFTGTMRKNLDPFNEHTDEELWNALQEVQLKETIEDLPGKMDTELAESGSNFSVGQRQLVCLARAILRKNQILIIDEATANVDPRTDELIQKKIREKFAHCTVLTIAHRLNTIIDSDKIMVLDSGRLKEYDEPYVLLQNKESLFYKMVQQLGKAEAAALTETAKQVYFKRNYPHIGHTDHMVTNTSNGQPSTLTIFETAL

[6] = Drug concentration at steady state in human at 20 to 100 mg, po QD or 60 mg, po BID after 12 hrs; format: ADME, organism-based; settings: in vivo, read-out: Css
[7] = biological target: ATP-binding cassette sub-family C member 2 (Homo sapiens, UniProt Q92887); assay: Inhibition of human MRP2 overexpressed in Sf9 cell membrane vesicles assessed as uptake of [3H]-estradiol-17beta-D-glucuronide in presence of ATP and GSH measured after 20 mins by membrane vesicle transport assay
[8] = Drug concentration at steady state in human at 400 to 800 mg, po QD after 24 hrs; format: ADME, organism-based; settings: in vivo, read-out: Css
[9] = AUC in human at 400 to 800 mg, po QD after 24 hrs; format: ADME, organism-based; settings: in vivo
[10] = Ratio of drug concentration at steady state in human at 400 to 800 mg, po QD after 24 hrs to IC50 for human BSEP overexpressed in Sf9 insect cells; format: ADME, organism-based; settings: in vivo
[11] = Drug concentration at steady state in human at 200 to 1200 mg, po QD after 24 hrs; settings: in vivo
[12] = clinical; settings: human, in vivo, po
[13] = Drug concentration at steady state in human at 10 to 20 mg, po QID after 6 hrs; format: ADME, organism-based; settings: in vivo, read-out: Css
[14] = Ratio of drug concentration at steady state in human at 10 to 20 mg, po QID after 6 hrs to IC50 for human BSEP overexpressed in Sf9 insect cells; format: ADME, organism-based; settings: in vivo
[15] = AUC in human at 10 to 20 mg, po QID after 6 hrs; format: ADME, organism-based; settings: in vivo
[16] = Ratio of drug concentration at steady state in human at 15 to 120 mg, po QD after 24 hrs to IC50 for human MRP3 overexpressed in Sf9 insect cells; format: ADME, organism-based; settings: in vivo
[17] = Drug concentration at steady state in human at 15 to 120 mg, po QD after 24 hrs; format: ADME, organism-based; settings: in vivo, read-out: Css
[18] = Ratio of drug concentration at steady state in human at 15 to 120 mg, po QD after 24 hrs to IC50 for human MRP4 overexpressed in Sf9 insect cells; format: ADME, organism-based; settings: in vivo
[19] = Ratio of drug concentration at steady state in human at 15 to 120 mg, po QD after 24 hrs to IC50 for human BSEP overexpressed in Sf9 insect cells; format: ADME, organism-based; settings: in vivo
[20] = AUC in human at 15 to 120 mg, po QD after 24 hrs; format: ADME, organism-based; settings: in vivo
[21] = AUC in human at 20 to 25 mg/kg, po TID after 8 hrs; format: ADME, organism-based; settings: in vivo
[22] = Ratio of drug concentration at steady state in human at 20 to 25 mg/kg, po TID after 8 hrs to IC50 for human BSEP overexpressed in Sf9 insect cells; format: ADME, organism-based; settings: in vivo
[23] = Drug concentration at steady state in human at 20 to 25 mg/kg, po TID after 8 hrs; format: ADME, organism-based; settings: in vivo, read-out: Css

Sequence of ATP-binding cassette sub-family C member 2 (Q92887 whole entry): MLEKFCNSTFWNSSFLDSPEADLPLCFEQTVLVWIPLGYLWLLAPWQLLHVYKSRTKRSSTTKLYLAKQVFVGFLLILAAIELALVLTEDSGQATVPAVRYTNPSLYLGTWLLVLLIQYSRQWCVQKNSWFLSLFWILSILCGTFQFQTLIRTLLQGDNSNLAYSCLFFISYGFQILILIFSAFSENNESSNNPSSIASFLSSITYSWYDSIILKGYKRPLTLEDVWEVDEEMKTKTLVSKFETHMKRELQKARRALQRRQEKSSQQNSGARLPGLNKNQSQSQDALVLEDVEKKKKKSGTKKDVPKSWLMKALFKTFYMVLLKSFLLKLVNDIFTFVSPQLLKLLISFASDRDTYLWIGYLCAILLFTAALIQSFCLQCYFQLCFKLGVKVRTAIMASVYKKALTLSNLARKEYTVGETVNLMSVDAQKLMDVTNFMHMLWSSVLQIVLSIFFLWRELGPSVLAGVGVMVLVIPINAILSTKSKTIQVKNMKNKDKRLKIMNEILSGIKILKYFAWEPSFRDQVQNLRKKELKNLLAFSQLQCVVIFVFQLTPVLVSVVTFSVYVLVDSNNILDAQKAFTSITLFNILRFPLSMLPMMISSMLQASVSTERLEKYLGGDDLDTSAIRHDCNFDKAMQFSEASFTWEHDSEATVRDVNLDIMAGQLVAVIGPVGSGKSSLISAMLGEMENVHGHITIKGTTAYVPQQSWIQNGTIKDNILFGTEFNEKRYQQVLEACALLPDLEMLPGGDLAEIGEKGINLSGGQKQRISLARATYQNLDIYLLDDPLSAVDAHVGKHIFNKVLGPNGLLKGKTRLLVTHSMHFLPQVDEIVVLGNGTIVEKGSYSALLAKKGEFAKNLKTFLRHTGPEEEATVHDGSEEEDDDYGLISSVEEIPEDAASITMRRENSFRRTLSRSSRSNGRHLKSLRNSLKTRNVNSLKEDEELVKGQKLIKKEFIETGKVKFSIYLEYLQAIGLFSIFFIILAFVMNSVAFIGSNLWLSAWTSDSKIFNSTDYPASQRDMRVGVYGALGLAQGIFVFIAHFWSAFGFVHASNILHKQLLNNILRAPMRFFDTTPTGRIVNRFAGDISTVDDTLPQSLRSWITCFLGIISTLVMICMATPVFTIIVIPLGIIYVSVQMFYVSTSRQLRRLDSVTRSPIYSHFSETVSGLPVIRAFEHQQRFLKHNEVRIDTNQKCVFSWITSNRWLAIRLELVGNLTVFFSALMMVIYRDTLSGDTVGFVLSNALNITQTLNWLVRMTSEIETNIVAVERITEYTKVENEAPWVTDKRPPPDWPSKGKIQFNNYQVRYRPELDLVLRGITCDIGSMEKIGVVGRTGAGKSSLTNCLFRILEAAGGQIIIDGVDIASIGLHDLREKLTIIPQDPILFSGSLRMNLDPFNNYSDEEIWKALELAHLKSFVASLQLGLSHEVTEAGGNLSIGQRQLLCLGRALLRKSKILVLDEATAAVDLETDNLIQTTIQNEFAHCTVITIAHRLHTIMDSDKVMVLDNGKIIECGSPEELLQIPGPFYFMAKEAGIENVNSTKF
Sequence of Bile salt export pump (O95342 whole entry): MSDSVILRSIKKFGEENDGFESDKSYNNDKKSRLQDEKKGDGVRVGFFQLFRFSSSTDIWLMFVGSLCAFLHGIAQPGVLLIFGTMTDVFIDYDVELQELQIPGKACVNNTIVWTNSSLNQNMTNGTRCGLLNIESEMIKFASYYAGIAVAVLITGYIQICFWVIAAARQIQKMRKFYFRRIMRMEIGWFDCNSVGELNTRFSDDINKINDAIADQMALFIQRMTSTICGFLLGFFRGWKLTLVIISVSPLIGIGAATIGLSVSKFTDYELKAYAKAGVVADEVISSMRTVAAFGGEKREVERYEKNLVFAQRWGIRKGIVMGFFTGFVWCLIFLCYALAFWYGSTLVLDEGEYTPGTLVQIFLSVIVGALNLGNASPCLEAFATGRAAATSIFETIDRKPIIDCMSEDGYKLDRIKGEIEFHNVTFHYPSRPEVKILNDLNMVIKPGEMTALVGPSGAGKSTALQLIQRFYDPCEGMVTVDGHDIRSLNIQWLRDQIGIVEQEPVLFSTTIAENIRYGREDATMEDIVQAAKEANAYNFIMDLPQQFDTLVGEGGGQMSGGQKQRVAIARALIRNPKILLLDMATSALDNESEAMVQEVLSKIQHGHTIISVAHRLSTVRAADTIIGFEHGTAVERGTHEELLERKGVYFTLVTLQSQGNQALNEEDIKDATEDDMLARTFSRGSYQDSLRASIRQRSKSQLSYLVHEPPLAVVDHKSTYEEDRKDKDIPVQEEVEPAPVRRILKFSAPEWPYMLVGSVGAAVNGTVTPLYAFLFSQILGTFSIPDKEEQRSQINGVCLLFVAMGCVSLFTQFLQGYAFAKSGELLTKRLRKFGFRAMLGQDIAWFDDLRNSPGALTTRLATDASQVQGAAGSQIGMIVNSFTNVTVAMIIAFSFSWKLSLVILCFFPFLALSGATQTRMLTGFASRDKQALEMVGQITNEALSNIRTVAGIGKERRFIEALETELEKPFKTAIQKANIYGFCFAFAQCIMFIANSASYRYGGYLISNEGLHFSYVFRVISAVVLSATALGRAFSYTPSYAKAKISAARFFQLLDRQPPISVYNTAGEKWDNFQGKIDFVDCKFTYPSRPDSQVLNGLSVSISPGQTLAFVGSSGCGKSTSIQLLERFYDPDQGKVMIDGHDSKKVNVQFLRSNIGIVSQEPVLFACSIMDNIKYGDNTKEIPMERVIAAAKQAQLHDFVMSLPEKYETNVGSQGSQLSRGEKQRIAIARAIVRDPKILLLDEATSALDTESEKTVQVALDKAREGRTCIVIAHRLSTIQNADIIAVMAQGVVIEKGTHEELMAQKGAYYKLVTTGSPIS
Sequence of ATP-binding cassette sub-family C member 3 (O15438 whole entry): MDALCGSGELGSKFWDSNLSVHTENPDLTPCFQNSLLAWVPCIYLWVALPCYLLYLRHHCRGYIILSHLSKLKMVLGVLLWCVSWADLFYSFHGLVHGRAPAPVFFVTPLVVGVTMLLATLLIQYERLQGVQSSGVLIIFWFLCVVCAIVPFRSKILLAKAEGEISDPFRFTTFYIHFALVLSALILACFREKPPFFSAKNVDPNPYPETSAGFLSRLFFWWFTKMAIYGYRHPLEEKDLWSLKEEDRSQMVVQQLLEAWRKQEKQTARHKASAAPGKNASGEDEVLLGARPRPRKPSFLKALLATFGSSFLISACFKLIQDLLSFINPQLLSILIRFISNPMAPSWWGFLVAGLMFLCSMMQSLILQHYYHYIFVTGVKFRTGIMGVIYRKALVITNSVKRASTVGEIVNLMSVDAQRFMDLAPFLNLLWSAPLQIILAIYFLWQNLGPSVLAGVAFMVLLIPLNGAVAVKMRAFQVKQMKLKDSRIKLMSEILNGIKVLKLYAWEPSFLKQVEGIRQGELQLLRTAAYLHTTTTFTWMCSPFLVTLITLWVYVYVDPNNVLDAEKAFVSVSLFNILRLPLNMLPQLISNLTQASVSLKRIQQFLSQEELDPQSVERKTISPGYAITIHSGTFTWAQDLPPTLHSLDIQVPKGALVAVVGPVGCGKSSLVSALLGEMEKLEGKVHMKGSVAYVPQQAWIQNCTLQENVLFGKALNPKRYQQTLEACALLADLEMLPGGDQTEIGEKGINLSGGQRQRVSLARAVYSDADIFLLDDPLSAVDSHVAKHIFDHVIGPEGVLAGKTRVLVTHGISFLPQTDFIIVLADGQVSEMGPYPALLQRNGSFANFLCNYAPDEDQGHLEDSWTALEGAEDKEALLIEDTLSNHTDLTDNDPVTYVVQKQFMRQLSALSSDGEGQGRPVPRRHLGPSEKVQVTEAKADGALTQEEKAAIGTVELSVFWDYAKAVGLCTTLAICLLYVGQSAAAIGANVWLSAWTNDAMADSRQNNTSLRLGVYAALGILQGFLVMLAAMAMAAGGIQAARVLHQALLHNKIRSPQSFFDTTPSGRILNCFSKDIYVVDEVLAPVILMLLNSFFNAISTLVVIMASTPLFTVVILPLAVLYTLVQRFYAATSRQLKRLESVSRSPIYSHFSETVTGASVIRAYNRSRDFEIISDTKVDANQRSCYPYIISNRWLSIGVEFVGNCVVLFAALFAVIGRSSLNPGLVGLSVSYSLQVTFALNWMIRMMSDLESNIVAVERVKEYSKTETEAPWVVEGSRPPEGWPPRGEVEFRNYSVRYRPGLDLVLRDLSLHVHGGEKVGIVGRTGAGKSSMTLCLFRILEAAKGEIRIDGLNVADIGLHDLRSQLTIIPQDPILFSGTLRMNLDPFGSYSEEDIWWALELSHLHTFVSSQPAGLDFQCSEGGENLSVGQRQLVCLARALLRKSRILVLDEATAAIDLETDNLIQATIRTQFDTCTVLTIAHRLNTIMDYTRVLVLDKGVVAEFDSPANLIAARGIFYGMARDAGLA

SMILES	IC50 [1] [µM]	IC50 [4] [µM]	IC50 [5] [µM]	IC50 [7] [µM]	also measured
COCCCOc1ccnc(C[S+]([O-])c2nc3ccccc3[n-]2)c1C.[Na+] (stereo unspecified) [RABEPRAZOLE SODIUM]	> 133	33.9	> 133	> 133	AUC at 12 h [2]: 14.5 µM·h; Ratio [3]: 0.036; concentration at 12 h [6]: 1210 nM
CC(=O)O[C@]1(C(C)=O)CC[C@H]2[C@@H]3C=C(C)C4=CC(=O)CC[C@]4(C)[C@H]3CC[C@@]21C [MEGESTROL ACETATE]	> 133	17.8	> 133	> 133	concentration at 24 h [8]: 1490 nM; AUC at 24 h [9]: 35.8 µM·h; Ratio [10]: 0.084
CCCCc1oc2ccccc2c1C(=O)c1cc(I)c(OCCN(CC)CC)c(I)c1 [AMIODARONE]	> 133		> 133	> 133	concentration at 24 h [11]: 1360 nM; AUC at 24 h [12]: 32.7 µM·h
COc1cc(N)c(Cl)cc1C(=O)NC1CCN(CCCOc2ccc(F)cc2)CC1OC.O (stereo unspecified) [CISAPRIDE MONOHYDRATE]	> 133	22	> 133	> 133	concentration at 6 h [13]: 797 nM; Ratio [14]: 0.036; AUC at 6 h [15]: 4.78 µM·h
COc1ccc2c(c1)C(=O)N(CCc1ccc(S(=O)(=O)NC(=O)NC3CCCCC3)cc1)C(=O)C2(C)C [GLIQUIDONE]	23.9	11.6	6.3		Ratio [16]: 0.017; concentration at 24 h [17]: 403 nM; Ratio [18]: 0.064; Ratio [19]: 0.035; AUC at 24 h [20]: 9.67 µM·h
O=C(C1CCCCC1)N1CC(=O)N2CCc3ccccc3C2C1 (stereo unspecified) [PRAZIQUANTEL]	> 133	67.1	> 133	> 133	AUC at 8 h [21]: 50.4 µM·h; Ratio [22]: 0.094; concentration at 8 h [23]: 6300 nM
